Assay results published in PubChem BioAssay AID1259407 (Chemical Carcinogenesis Research Information System (CCRIS), 2018).
Activity calls are given as the source filed them. No rule for the calls is given here.

Test system: CCRIS mutagenicity, Ames/micronucleus/aberration tests
Assay: CCRIS mutagenicity studies
[1] = Test System: AMES SALMONELLA TYPHIMURIUM, Strain/Indicator: TA98, Metabolic Activation: NONE, Method: STANDARD PLATE
[2] = Test System: AMES SALMONELLA TYPHIMURIUM, Strain/Indicator: TA98, Metabolic Activation: RAT, LIVER, S-9, AROCLOR 1254, Method: STANDARD PLATE
[3] = Test System: AMES SALMONELLA TYPHIMURIUM, Strain/Indicator: TA100, Metabolic Activation: NONE, Method: STANDARD PLATE
[4] = Test System: AMES SALMONELLA TYPHIMURIUM, Strain/Indicator: TA100, Metabolic Activation: RAT, LIVER, S-9, AROCLOR 1254, Method: STANDARD PLATE

Measured: mutagenic call

CC1=CC(=O)c2ccccc2C1=O
active: Test System: AMES SALMONELLA TYPHIMURIUM, Strain/Indicator: TA97, Metabolic Activation: NONE, Method: PREINCUBATION active; positive | Test System: AMES SALMONELLA TYPHIMURIUM, Strain/Indicator: TA98, Metabolic Activation: RAT, LIVER, S-9, PHENOBARBITAL AND 5,6-BENZOFLAVONE, Method: PREINCUBATION active; positive | Test System: AMES SALMONELLA TYPHIMURIUM, Strain/Indicator: TA2637, Metabolic Activation: NONE, Method: PREINCUBATION active; positive | Test System: AMES SALMONELLA TYPHIMURIUM, Strain/Indicator: TA2637, Metabolic Activation: RAT, LIVER, S-9, PHENOBARBITAL AND 5,6-BENZOFLAVONE, Method: PREINCUBATION active; positive | Test System: E. COLI, Strain/Indicator: IC202, Metabolic Activation: NONE, Method: STANDARD PLATE active; positive | Test System: E. COLI, Strain/Indicator: IC203, Metabolic Activation: NONE, Method: STANDARD PLATE active; positive
inactive: Test System: AMES SALMONELLA TYPHIMURIUM, Strain/Indicator: TA97, Metabolic Activation: RAT, LIVER, S-9, PHENOBARBITAL AND 5,6-BENZOFLAVONE, Method: PREINCUBATION inactive; negative | Test System: AMES SALMONELLA TYPHIMURIUM, Strain/Indicator: TA97A, Metabolic Activation: NONE, Method: PREINCUBATION inactive; negative | Test System: AMES SALMONELLA TYPHIMURIUM, Strain/Indicator: TA98, Metabolic Activation: NONE, Method: PREINCUBATION inactive; negative | Test System: AMES SALMONELLA TYPHIMURIUM, Strain/Indicator: TA98, Metabolic Activation: NONE, Method: SPIRAL ASSAY inactive; negative | [1] inactive; negative | Test System: AMES SALMONELLA TYPHIMURIUM, Strain/Indicator: TA98, Metabolic Activation: RAT, LIVER, S-9, AROCLOR 1254, Method: SPIRAL ASSAY inactive; negative | [2] inactive; negative | Test System: AMES SALMONELLA TYPHIMURIUM, Strain/Indicator: TA100, Metabolic Activation: NONE, Method: SPIRAL ASSAY inactive; negative | [3] inactive; negative | Test System: AMES SALMONELLA TYPHIMURIUM, Strain/Indicator: TA100, Metabolic Activation: RAT, LIVER, S-9, AROCLOR 1254, Method: SPIRAL ASSAY inactive; negative | [4] inactive; negative | Test System: AMES SALMONELLA TYPHIMURIUM, Strain/Indicator: TA100, Metabolic Activation: RAT, LIVER, S-9, PHENOBARBITAL AND 5,6-BENZOFLAVONE, Method: PREINCUBATION inactive; negative | Test System: AMES SALMONELLA TYPHIMURIUM, Strain/Indicator: TA102, Metabolic Activation: NONE, Method: PREINCUBATION inactive; negative | Test System: AMES SALMONELLA TYPHIMURIUM, Strain/Indicator: TA102, Metabolic Activation: NONE, Method: STANDARD PLATE inactive; negative | Test System: AMES SALMONELLA TYPHIMURIUM, Strain/Indicator: TA102, Metabolic Activation: RAT, LIVER, S-9, PHENOBARBITAL AND 5,6-BENZOFLAVONE, Method: PREINCUBATION inactive; negative | Test System: AMES SALMONELLA TYPHIMURIUM, Strain/Indicator: TA104, Metabolic Activation: RAT, LIVER, S-9, PHENOBARBITAL AND 5,6-BENZOFLAVONE, Method: PREINCUBATION inactive; negative | Test System: AMES SALMONELLA TYPHIMURIUM, Strain/Indicator: TA1535, Metabolic Activation: NONE, Method: PREINCUBATION inactive; negative | Test System: AMES SALMONELLA TYPHIMURIUM, Strain/Indicator: TA1535, Metabolic Activation: NONE, Method: SPIRAL ASSAY inactive; negative | Test System: AMES SALMONELLA TYPHIMURIUM, Strain/Indicator: TA1535, Metabolic Activation: NONE, Method: STANDARD PLATE inactive; negative | Test System: AMES SALMONELLA TYPHIMURIUM, Strain/Indicator: TA1535, Metabolic Activation: RAT, LIVER, S-9, AROCLOR 1254, Method: SPIRAL ASSAY inactive; negative | Test System: AMES SALMONELLA TYPHIMURIUM, Strain/Indicator: TA1535, Metabolic Activation: RAT, LIVER, S-9, AROCLOR 1254, Method: STANDARD PLATE inactive; negative | Test System: AMES SALMONELLA TYPHIMURIUM, Strain/Indicator: TA1535, Metabolic Activation: RAT, LIVER, S-9, PHENOBARBITAL AND 5,6-BENZOFLAVONE, Method: PREINCUBATION inactive; negative | Test System: AMES SALMONELLA TYPHIMURIUM, Strain/Indicator: TA1537, Metabolic Activation: NONE, Method: PREINCUBATION inactive; negative | Test System: AMES SALMONELLA TYPHIMURIUM, Strain/Indicator: TA1537, Metabolic Activation: NONE, Method: SPIRAL ASSAY inactive; negative | Test System: AMES SALMONELLA TYPHIMURIUM, Strain/Indicator: TA1537, Metabolic Activation: NONE, Method: STANDARD PLATE inactive; negative | Test System: AMES SALMONELLA TYPHIMURIUM, Strain/Indicator: TA1537, Metabolic Activation: RAT, LIVER, S-9, AROCLOR 1254, Method: SPIRAL ASSAY inactive; negative | Test System: AMES SALMONELLA TYPHIMURIUM, Strain/Indicator: TA1537, Metabolic Activation: RAT, LIVER, S-9, AROCLOR 1254, Method: STANDARD PLATE inactive; negative | Test System: AMES SALMONELLA TYPHIMURIUM, Strain/Indicator: TA1537, Metabolic Activation: RAT, LIVER, S-9, PHENOBARBITAL AND 5,6-BENZOFLAVONE, Method: PREINCUBATION inactive; negative | Test System: AMES SALMONELLA TYPHIMURIUM, Strain/Indicator: TA1538, Metabolic Activation: NONE, Method: PREINCUBATION inactive; negative | Test System: AMES SALMONELLA TYPHIMURIUM, Strain/Indicator: TA1538, Metabolic Activation: RAT, LIVER, S-9, PHENOBARBITAL AND 5,6-BENZOFLAVONE, Method: PREINCUBATION inactive; negative | Test System: AMES SALMONELLA TYPHIMURIUM, Strain/Indicator: TA2638, Metabolic Activation: NONE, Method: STANDARD PLATE inactive; negative | Test System: E. COLI, Strain/Indicator: IC5059, Metabolic Activation: NONE, Method: STANDARD PLATE inactive; negative | Test System: E. COLI, Strain/Indicator: IC5064, Metabolic Activation: NONE, Method: STANDARD PLATE inactive; negative | Test System: E. COLI, Strain/Indicator: IC5184, Metabolic Activation: NONE, Method: STANDARD PLATE inactive; negative | Test System: E. COLI, Strain/Indicator: IC5185, Metabolic Activation: NONE, Method: STANDARD PLATE inactive; negative | Test System: E. COLI, Strain/Indicator: WP2 (PKM101), Metabolic Activation: NONE, Method: STANDARD PLATE inactive; negative | Test System: E. COLI, Strain/Indicator: WP2 UVRA (PKM101), Metabolic Activation: NONE, Method: STANDARD PLATE inactive; negative

NC(=O)N(CCBr)N=O
active: Test System: E. COLI B, Strain/Indicator: H/R30R, Metabolic Activation: NONE active; positive | Test System: E. COLI B, Strain/Indicator: HS30R, Metabolic Activation: NONE active; positive

O=C1Nc2ccc([N+](=O)[O-])cc2C1=O
active: Test System: AMES SALMONELLA TYPHIMURIUM, Strain/Indicator: TA98, Metabolic Activation: HAMSTER, LIVER, S-9, AROCLOR 1254, Method: STANDARD PLATE active; positive | [1] active; positive | [2] active; positive | Test System: AMES SALMONELLA TYPHIMURIUM, Strain/Indicator: TA100, Metabolic Activation: HAMSTER, LIVER, S-9, AROCLOR 1254, Method: STANDARD PLATE active; positive | [3] active; positive | [4] active; positive | Test System: MOUSE LYMPHOMA, Strain/Indicator: L5178Y (TK+/TK-), Metabolic Activation: NONE, Method: SUSPENSION/PLATE active; positive. reevaluation of results: positive | Test System: MOUSE LYMPHOMA, Strain/Indicator: L5178Y (TK+/TK-), Metabolic Activation: RAT, LIVER, S-9, AROCLOR 1254, Method: SUSPENSION/PLATE active; positive. reevaluation of results: equivocal
